Test results reported in a compilation of properties of binary mixtures (doi:10.1016/j.molliq.2016.01.085).

Test: xn = mol fraction of the nth substance listed
Settings: 101 kPa

CCCOCCO + CCCC[n+]1ccn(C)c1.F[P-](F)(F)(F)(F)F
speed of sound [m/s]
Settings	x1 = 0.1468	x1 = 0.1945	x1 = 0.3063	x1 = 0.3953	x1 = 0.5119	x1 = 0.6168	x1 = 0.702	x1 = 0.8043	x1 = 0.8873	x1 = 1
298.15 K	1431.8	1427.1	1414	–	1384.2	1366.5	–	1331.5	1316.4	–
303.15 K	1419	1414	–	1387.9	1369.3	1351	1334.9	–	1299.9	1283.7
308.15 K	1406.6	–	1387.1	1374.1	1354.7	1335.6	1319.1	–	1283.5	1266.4
313.15 K	1394.5	1389.3	1374.4	1360.8	1340.3	1320.3	–	1283.2	1267.2	1249.2
318.15 K	1382.8	1377.1	1361.6	1347.3	–	–	1288.1	1267.3	1250.9	1231.9
323.15 K	–	1365.3	1349.2	1334.2	1312	–	1272.7	1251.5	1234.9	1215

CCCC[n+]1ccn(C)c1.F[P-](F)(F)(F)(F)F + CCCOCCO
x2 = 0
Settings	speed of sound [m/s]
298.15 K	1443.8
308.15 K	1419.8
323.15 K	1385.6
